According to US5173509A (The United States of America as represented by the …, priority 1990, dated 1992):
Entries after “also recorded” stand apart in the source; their conditions may differ.

Legend:
[1] = tested on: calvaria; assay: Bone resorption assay (calcium released into media by mouse calvaria); assay type: cell-based, mice (In:GP(s)), three to six day old; details: for calcium in the media: three days
Excerpt: Glutamine was obtained from Biofluids (Catalog No. 300). […] Heparin was obtained from Organon (1000 units/cc). […] Above factors were stored at -20 degrees centigrade.
Three to six day old mice (In:GP(s)) were obtained from the small animal section of the Veterinarian Resources Branch of the National Institutes of Health. Calvaria were harvested and washed in 500 cc of Hank's Balanced Salt solution without calcium or magnesium (Catalog No. 320, Biofluids) with a stirring bar for one to one and a half hours. The calvaria were placed in 2cc of study media in 16 × 125 mm STYRENE tissue culture tubes (Catalog No. R605, Elkay Products, Inc.). Study media was made by mixing equal volumes of Media A and Media B and then adding the appropriate growth factors. […] The calcium in the media was determined after three days with an ABBOTT Bichromatic Analyzer 100.

[2] = Plasma half life / plasma level; assay type: in vivo, human; details: after attainment of an effective plasma level
Excerpt: The term "plasma" as used herein refers to whole blood plasma having cell bodies spun out by centrifugation, or similar method. […] Chromatog., Vol. 8, pp. 1685-1696 (1985), hereby incorporated by reference.

[3] = tested on: patient having symptomatic hypercalcemia; details: cited from earlier work
[4] = cited from earlier work
[5] = when used at the levels herein taught; cited from earlier work
[6] = tested on: PDGF cell surface receptors; details: cited from earlier work
[7] = tested on: TGF-B cell surface receptors; details: cited from earlier work
[8] = tested on: EGF cell surface receptors; details: cited from earlier work

With `Cc1ccc(C(=O)Nc2ccc(S(=O)(=O)O)c3cc(S(=O)(=O)O)cc(S(=O)(=O)O)c23)cc1NC(=O)c1cccc(NC(=O)Nc2cccc(C(=O)Nc3cc(C(=O)Nc4ccc(S(=O)(=O)O)c5cc(S(=O)(=O)O)cc(S(=O)(=O)O)c45)ccc3C)c2)c1` [suramin, 8,8'-[carbonylbis[imino-3,1-phenylenecarbonylimino(4-methyl-3,1-phenylene)carbonylimino]]bis-1,3,5-naphthalenetrisulfonic acid] as the compound, how does the “calcium in the media” value ([1]; Example 1, FIG. 1A, calvaria plus suramin 200 mcg/ml, mean +/- SEM, n=6, media with calvaria 9.88 +/- 1.49, P=0.0002) read?
The value was 7.05 ± 0.32 mg/dL.

And the “calcium in the media” value ([1]; Example 2, FIG. 1B, calvaria plus PTH (200 ng/ml) plus suramin 200 mcg/ml, n=6, vs. calvaria plus PTH P=0.0045)?
Its value is 8.33 ± 0.57 mg/dL.

What about the “calcium in the media” value ([1]; Example 3, FIG. 1C, calvaria plus PTH-rp (200 ng/ml) plus suramin 200 mcg/ml, n=10, vs. calvaria plus PTH-rp P=0.0001) of the same compound?
The value was 7.26 ± 0.18 mg/dL.

And the “inhibition of bone resorption (conclusion in words)” value ([1]; based on Examples 1-3)?
The value was “possesses properties which allow it to inhibit bone resorption”.

What about the “time for which effective plasma levels are maintained without readministering” value [2] of the same compound?
Its value is 6-8 weeks.

What about the “duration of normocalcemia after suramin treatment” value ([3]; one patient, cancer metastatic to bone) of the same compound?
Its value is “remained normocalcemic for three months; also recorded: normalized for three months”.

And the normalization of hypercalcemia ([3]; suramin 350 mg/m^2 /d continuous infusion about two weeks, calcium levels before 14 to 15 mg/dL)?
The normalization of hypercalcemia was “became normocalcemic within about two weeks”.

What about the plasma suramin level ([4]; 350 mg/m^2 /d continuous infusion for about two weeks, 20160 min) of the same compound?
Its plasma suramin level is 250 to 300 µg/mL.

And the “half life in plasma (in words)” value ([4]; human plasma)?
Its value is “long plasma half life”.

And the “toxicity (in words)” value [5]?
The value was “relatively low toxicity”.

What about the “blocking of PDGF to cell surface receptors” value [6] of the same compound?
Its value is “has been shown to block”.

And the “blocking of TGF-B to cell surface receptors” value [7]?
Its value is “has been shown to block”.

What about the “blocking of EGF to cell surface receptors” value [8] of the same compound?
Its value is “has been shown to block”.

Which “calcium in the media” value ([1]; Example 3, FIG. 1C, calvaria plus PTH-rp 200 ng/ml, without suramin, n=10, media with calvaria 9.1 +/- 0.46, P=0.0015) does the source give for “Parathyroid Hormone - related protein (PTH-rp): Human PTH-related protein (PTH-RP) (1-34) (Catalog No. 6151; Peninsular Laboratories Incorporated)” here?
The value was 11.3 ± 0.34 mg/dL.

For calcitonin, which “response of hypercalcemia to calcitonin” value ([3]; same patient, before suramin) is on record?
The value was “becoming refractory to treatment with calcitonin”.
